Laboratory results taken from paper PMC12406203 (Journal of Medicinal Chemistry, 2025).

What was measured:
Test in all cases: KINOMEscan
Format in all cases: binding
[1] = molecular target: T1, ADCK3 (Homo sapiens, UniProt Q8NI60)
T1 construct: purchased Eurofins DiscoverX, LLC; host or cells: E. coli BL21-derived (T7 phage) or HEK-293
Description: (§1) The kinase inhibition profile of compounds 94 and 95 was assessed against 103 protein kinases by Eurofins DiscoverX, LLC., using the KINOMEscan assay. Kinase-tagged T7 phage strains were grown in parallel in 24-well blocks in an E. coli host derived from the BL21 strain. E. coli were grown to log-phase and infected with T7 phage from a frozen stock (multiplicity of infection = 0.4) and incubated with shaking at 32 °C until lysis (90–150 min). The lysates were centrifuged (6000g) and filtered (0.2 μm) to remove cell debris. The remaining kinases were produced in HEK-293 cells and subsequently tagged with DNA for qPCR detection. […] The liganded beads were blocked with excess biotin and washed with blocking buffer (SeaBlock (Pierce), 1% BSA, 0.05% Tween 20, 1 mM DTT) to remove unbound ligand and to reduce nonspecific phage binding. […] Test compounds were prepared as 100× stocks in 100% DMSO and directly diluted into the assay. All reactions were performed in polypropylene 384-well plates in a final volume of 0.02 mL. […] The kinase concentration in the eluates was measured by qPCR.
(§2) The compound(s) were screened at the concentration(s) requested, and results for primary screen binding interactions are reported as RA (%), where lower numbers indicate stronger hits in the matrix. RA=(testcompoundsignal−PCsignal/NCsignal−PCsignal)×100

[2] = molecular target: T2, ABL1-nonphosphorylated (Homo sapiens, UniProt P00519)
T2 construct: purchased Eurofins DiscoverX, LLC; host or cells: E. coli BL21-derived (T7 phage) or HEK-293
Description: as §1, §2

[3] = molecular target: T3, PIK3CG (Homo sapiens, UniProt P48736)
T3 construct: purchased Eurofins DiscoverX, LLC; host or cells: E. coli BL21-derived host (T7 phage) or HEK-293
Description: as §1, §2

[4] = molecular target: T4, INSR (Homo sapiens, UniProt P06213)
T4 construct: purchased Eurofins DiscoverX, LLC; host or cells: E. coli (T7 phage) or HEK-293
Description: as §1, §2

[5] = molecular target: T5, LCK (Homo sapiens, UniProt P06239)
T5 construct: purchased Eurofins DiscoverX, LLC; host or cells: E. coli (BL21-derived, T7 phage) or HEK-293
Description: as §1, §2

[6] = molecular target: T6, PDPK1 (Homo sapiens, UniProt O15530)
T6 construct: purchased Eurofins DiscoverX, LLC; host or cells: E. coli BL21-derived host (T7 phage) or HEK-293
T6 sequence (O15530 1-556): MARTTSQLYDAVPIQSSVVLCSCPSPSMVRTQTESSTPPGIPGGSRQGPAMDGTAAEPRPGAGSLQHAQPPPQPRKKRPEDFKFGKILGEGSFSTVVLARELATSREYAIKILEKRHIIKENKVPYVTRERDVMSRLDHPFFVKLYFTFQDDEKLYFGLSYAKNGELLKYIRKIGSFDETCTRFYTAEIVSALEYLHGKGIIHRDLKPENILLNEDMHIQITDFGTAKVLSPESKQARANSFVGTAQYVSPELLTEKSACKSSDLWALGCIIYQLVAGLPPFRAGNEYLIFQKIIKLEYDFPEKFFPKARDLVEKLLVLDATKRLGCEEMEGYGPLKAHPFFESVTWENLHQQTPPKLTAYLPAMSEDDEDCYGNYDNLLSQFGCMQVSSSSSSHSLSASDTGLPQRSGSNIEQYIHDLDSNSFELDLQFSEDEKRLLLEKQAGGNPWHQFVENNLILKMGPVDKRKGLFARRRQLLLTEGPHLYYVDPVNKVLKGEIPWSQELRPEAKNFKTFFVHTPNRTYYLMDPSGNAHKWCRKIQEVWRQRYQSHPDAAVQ
Description: as §1, §2

[7] = molecular target: T7, FAK (Homo sapiens, UniProt Q05397)
T7 construct: purchased Eurofins DiscoverX, LLC; host or cells: E. coli (T7 phage) or HEK-293
Description: as §1, §2

[8] = molecular target: T8, PIM2 (Homo sapiens, UniProt Q9P1W9)
T8 construct: purchased Eurofins DiscoverX, LLC; host or cells: E. coli BL21-derived host (T7 phage) or HEK-293
Description: as §1, §2

[9] = molecular target: T9, PLK1 (Homo sapiens, UniProt P53350)
T9 construct: purchased Eurofins DiscoverX, LLC; host or cells: E. coli BL21-derived host (T7 phage) or HEK-293
Description: as §1, §2

[10] = molecular target: T10, YANK3 (Homo sapiens, UniProt Q86UX6)
T10 construct: purchased Eurofins DiscoverX, LLC; host or cells: E. coli BL21-derived host (T7 phage) or HEK-293
Description: as §1, §2

[11] = molecular target: T11, JNK3 (Homo sapiens, UniProt P53779)
T11 construct: purchased Eurofins DiscoverX, LLC; host or cells: E. coli (BL21-derived, T7 phage) or HEK-293
Description: as §1, §2

[12] = molecular target: T12, PIM3 (Homo sapiens, UniProt Q86V86)
T12 construct: purchased Eurofins DiscoverX, LLC; host or cells: E. coli BL21-derived host (T7 phage) or HEK-293
Description: as §1, §2

[13] = molecular target: T13, NLK (Homo sapiens, UniProt Q9UBE8)
T13 construct: purchased Eurofins DiscoverX, LLC; host or cells: E. coli (BL21-derived, T7 phage) or HEK-293
T13 sequence (Q9UBE8 1-527): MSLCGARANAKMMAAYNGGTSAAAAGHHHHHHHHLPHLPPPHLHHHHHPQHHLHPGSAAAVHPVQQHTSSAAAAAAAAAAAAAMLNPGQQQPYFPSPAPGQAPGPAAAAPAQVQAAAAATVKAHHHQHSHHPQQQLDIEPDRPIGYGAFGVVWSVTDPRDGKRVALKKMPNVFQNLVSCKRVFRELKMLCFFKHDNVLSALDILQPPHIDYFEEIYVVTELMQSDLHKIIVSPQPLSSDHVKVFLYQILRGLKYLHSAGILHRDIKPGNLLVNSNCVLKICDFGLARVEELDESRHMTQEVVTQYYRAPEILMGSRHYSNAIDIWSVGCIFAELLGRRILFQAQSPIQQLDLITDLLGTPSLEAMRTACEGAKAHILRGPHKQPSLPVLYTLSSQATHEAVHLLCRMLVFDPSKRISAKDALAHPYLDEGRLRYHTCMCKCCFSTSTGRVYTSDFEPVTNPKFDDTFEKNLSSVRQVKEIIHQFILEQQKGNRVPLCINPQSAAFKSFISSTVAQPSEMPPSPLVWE
Description: as §1, §2

[14] = molecular target: T14, p38α (Homo sapiens, UniProt Q16539)
T14 construct: purchased Eurofins DiscoverX, LLC; host or cells: E. coli (BL21-derived, T7 phage) or HEK-293
Description: as §1, §2

[15] = molecular target: T15, CDK2 (Homo sapiens, UniProt P24941)
T15 construct: purchased Eurofins DiscoverX, LLC; host or cells: E. coli BL21-derived (T7 phage) or HEK-293
Description: as §1, §2

T9 sequence (P53350 whole entry): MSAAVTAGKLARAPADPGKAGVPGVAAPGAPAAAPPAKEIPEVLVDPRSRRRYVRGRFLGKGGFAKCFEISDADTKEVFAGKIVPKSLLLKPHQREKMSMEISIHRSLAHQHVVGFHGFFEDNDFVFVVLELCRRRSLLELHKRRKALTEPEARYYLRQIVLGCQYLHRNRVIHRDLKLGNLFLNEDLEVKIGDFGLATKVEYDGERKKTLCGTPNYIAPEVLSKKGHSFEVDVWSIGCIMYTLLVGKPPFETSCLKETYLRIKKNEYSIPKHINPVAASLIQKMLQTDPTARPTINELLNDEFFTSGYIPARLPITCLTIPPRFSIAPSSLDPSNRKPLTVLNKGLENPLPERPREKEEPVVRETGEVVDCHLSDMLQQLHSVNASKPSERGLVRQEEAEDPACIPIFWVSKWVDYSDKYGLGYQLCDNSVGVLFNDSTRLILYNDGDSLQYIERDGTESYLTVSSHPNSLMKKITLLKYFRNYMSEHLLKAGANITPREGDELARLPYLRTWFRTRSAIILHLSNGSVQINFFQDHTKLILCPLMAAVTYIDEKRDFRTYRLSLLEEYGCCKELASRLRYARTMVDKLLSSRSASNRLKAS
T7 sequence (Q05397 whole entry): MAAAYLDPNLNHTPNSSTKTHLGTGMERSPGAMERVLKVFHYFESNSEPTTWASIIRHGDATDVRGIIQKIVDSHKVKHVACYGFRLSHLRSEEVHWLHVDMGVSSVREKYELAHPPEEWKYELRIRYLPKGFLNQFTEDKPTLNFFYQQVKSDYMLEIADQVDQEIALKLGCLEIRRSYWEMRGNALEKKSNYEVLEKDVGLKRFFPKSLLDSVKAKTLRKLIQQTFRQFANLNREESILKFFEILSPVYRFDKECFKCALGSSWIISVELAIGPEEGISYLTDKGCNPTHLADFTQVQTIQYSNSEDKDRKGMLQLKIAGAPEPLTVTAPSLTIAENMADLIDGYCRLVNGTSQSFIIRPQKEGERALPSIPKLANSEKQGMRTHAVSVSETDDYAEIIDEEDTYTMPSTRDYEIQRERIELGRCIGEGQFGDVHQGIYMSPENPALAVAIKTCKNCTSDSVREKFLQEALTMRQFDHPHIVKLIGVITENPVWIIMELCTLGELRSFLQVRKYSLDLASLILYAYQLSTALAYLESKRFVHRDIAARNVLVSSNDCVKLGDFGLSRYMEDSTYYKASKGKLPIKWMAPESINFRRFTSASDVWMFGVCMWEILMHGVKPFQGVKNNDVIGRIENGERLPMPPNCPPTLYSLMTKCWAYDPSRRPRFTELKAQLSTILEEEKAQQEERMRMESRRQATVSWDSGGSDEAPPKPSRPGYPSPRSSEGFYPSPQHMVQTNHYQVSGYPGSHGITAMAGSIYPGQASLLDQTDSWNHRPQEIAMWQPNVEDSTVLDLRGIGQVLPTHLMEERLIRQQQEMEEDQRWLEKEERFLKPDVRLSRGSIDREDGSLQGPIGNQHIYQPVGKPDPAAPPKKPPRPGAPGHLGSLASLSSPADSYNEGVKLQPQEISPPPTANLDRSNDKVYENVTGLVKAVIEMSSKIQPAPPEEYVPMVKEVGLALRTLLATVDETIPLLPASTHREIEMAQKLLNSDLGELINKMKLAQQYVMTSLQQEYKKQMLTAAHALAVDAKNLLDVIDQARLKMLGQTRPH
T8 sequence (Q9P1W9 whole entry): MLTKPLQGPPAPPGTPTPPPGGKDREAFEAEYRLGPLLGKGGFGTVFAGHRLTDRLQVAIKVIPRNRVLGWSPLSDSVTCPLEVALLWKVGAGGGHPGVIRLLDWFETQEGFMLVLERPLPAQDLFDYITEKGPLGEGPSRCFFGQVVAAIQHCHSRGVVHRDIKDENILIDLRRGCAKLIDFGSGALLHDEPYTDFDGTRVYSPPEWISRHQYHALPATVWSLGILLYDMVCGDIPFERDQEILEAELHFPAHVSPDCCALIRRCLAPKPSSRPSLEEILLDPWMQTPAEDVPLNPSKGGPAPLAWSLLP
T4 sequence (P06213 28-1382): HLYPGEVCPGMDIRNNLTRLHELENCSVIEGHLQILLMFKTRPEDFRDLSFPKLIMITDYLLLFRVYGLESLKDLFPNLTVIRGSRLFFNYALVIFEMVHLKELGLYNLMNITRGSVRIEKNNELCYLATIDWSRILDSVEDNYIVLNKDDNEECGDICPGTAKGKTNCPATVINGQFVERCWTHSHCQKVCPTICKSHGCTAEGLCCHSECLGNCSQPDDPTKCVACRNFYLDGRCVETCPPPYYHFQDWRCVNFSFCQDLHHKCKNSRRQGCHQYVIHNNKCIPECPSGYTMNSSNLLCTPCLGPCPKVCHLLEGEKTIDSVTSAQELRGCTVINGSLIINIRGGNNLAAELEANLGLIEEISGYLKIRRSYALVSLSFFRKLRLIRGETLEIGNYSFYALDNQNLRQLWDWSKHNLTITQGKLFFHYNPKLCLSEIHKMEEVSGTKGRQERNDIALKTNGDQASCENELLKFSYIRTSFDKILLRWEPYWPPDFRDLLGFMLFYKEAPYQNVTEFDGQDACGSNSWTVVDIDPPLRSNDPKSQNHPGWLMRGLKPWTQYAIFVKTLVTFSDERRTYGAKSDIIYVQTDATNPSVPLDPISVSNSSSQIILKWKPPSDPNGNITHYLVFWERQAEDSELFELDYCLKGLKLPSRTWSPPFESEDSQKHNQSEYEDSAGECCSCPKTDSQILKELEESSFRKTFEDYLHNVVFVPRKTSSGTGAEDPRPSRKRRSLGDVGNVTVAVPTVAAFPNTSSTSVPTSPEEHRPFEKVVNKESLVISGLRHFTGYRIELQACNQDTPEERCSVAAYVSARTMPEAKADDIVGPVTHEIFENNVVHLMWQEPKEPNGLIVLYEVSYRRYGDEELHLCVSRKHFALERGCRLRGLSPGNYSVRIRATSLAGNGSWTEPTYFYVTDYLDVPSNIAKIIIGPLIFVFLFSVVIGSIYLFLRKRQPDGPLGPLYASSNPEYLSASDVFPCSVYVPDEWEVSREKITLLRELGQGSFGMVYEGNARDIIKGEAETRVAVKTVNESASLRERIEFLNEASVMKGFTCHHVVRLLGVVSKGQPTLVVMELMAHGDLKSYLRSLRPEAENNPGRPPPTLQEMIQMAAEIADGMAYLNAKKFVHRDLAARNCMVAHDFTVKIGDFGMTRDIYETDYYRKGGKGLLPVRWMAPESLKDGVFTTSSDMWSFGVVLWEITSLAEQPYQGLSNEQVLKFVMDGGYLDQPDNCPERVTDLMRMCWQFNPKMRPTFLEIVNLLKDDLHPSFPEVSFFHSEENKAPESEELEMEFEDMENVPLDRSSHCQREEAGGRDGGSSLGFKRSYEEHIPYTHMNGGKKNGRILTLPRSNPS
T1 sequence (Q8NI60 163-647): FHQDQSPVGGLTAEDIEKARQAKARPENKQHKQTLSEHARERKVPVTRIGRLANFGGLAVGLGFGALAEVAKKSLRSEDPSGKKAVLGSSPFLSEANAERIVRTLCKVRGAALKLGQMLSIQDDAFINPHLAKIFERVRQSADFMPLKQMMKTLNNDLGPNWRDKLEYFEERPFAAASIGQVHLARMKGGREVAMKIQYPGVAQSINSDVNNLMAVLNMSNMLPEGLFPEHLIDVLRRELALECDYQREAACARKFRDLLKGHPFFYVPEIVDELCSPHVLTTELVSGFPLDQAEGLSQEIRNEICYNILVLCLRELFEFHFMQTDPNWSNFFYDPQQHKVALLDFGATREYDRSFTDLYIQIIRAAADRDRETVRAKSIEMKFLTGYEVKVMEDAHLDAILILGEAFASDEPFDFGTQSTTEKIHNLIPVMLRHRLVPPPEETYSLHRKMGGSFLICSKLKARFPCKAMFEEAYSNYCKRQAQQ
T10 sequence (Q86UX6 whole entry): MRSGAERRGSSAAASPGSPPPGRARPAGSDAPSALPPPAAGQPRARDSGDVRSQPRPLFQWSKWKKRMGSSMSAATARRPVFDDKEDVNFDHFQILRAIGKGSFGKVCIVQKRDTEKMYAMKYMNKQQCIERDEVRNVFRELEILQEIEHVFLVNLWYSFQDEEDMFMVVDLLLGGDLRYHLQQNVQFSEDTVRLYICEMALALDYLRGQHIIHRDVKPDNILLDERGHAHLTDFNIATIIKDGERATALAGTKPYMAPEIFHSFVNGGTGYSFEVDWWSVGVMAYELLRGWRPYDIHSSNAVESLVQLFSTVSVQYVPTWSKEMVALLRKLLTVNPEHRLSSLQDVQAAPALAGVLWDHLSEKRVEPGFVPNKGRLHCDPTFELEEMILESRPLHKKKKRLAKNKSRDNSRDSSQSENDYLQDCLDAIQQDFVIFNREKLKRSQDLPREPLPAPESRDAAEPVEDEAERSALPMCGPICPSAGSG
T11 sequence (P53779 whole entry): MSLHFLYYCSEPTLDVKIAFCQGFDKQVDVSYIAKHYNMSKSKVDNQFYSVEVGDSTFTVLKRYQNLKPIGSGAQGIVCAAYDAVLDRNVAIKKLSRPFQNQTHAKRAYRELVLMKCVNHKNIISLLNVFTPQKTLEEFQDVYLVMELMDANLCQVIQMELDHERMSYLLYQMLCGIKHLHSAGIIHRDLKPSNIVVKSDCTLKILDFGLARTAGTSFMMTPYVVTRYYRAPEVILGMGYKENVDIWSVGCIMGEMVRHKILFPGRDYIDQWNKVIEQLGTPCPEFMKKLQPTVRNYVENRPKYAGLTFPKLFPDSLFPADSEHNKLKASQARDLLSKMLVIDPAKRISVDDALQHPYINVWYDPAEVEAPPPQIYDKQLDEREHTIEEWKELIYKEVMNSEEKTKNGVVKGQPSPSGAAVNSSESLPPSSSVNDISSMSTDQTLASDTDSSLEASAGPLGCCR

SMILES: CN(C)CCNC(=O)c1cc2c(cnn2CC2CCCCC2)cc1Cc1ccc(F)cc1F [Compound 95, 1-(Cyclohexylmethyl)-5-(2,4-difluorobenzyl)-N-(2-(dimethylamino)ethyl)-1H-indazole-6-carboxamide]
- RA @ 1000nM [1]: 100%
- RA @ 10000nM [1]: 81%
- RA @ 1000nM [2]: 90%
- RA @ 10000nM [2]: 90%
- RA @ 1000nM [3]: 92%
- RA @ 10000nM [3]: 97%
- RA @ 1000nM [4]: 84%
- RA @ 10000nM [4]: 81%
- RA @ 1000nM [5]: 94%
- RA @ 10000nM [5]: 100%
- RA @ 1000nM [6]: 100%
- RA @ 10000nM [6]: 87%
- RA @ 1000nM [7]: 92%
- RA @ 10000nM [7]: 94%
- RA @ 1000nM [8]: 100%
- RA @ 10000nM [8]: 100%
- RA @ 1000nM [9]: 100%
- RA @ 10000nM [9]: 100%
- RA @ 1000nM [10]: 100%
- RA @ 10000nM [10]: 100%
- RA @ 1000nM [11]: 48%
- RA @ 10000nM [11]: 3.7%
- RA @ 1000nM [12]: 100%
- RA @ 10000nM [12]: 100%
- RA @ 1000nM [13]: 100%
- RA @ 10000nM [13]: 100%
- RA @ 1000nM [14]: 6.7%
- RA @ 10000nM [14]: 0.1%
- RA @ 1000nM [15]: 99%
- RA @ 10000nM [15]: 100%

SMILES: CC(C)Cn1ncc2cc(Cc3ccc(F)cc3F)c(C(=O)NCCN(C)C)cc21 [Compound 94, 5-(2,4-Difluorobenzyl)-N-(2-(dimethylamino)ethyl)-1-isobutyl-1H-indazole-6-carboxamide]
- RA @ 1000nM [1]: 100%
- RA @ 10000nM [1]: 100%
- RA @ 1000nM [2]: 85%
- RA @ 10000nM [2]: 97%
- RA @ 1000nM [3]: 86%
- RA @ 10000nM [3]: 85%
- RA @ 1000nM [4]: 81%
- RA @ 10000nM [4]: 90%
- RA @ 1000nM [5]: 100%
- RA @ 10000nM [5]: 97%
- RA @ 1000nM [6]: 88%
- RA @ 10000nM [6]: 74%
- RA @ 1000nM [7]: 96%
- RA @ 10000nM [7]: 89%
- RA @ 1000nM [8]: 100%
- RA @ 10000nM [8]: 100%
- RA @ 1000nM [9]: 100%
- RA @ 10000nM [9]: 100%
- RA @ 1000nM [10]: 100%
- RA @ 10000nM [10]: 100%
- RA @ 1000nM [11]: 55%
- RA @ 10000nM [11]: 6.8%
- RA @ 1000nM [12]: 100%
- RA @ 10000nM [12]: 100%
- RA @ 1000nM [13]: 100%
- RA @ 10000nM [13]: 98%
- RA @ 1000nM [14]: 2.3%
- RA @ 10000nM [14]: 0.4%
- RA @ 1000nM [15]: 82%
- RA @ 10000nM [15]: 97%
